In paper PMC11323563, “Multiple levels of transcriptional regulation control glycolate metabolism in Paracoccus denitrificans” (mBio, 2024):

How the values were obtained:
[1] = target: T1, MGlcR (Paracoccus denitrificans, UniProt A1BAC0); experiment: fluorescence polarization, effector titration of 6FAM-Pglc-MGlcR complex; details: 0.1-100 mM effector, 750 nM MGlcR, 10 nM Pglc; pH 7.5, room temperature; effector decreasing DNA binding
T1 construct: gene Pden_4400; Ni-NTA purified
T1 sequence (A1BAC0 1-269): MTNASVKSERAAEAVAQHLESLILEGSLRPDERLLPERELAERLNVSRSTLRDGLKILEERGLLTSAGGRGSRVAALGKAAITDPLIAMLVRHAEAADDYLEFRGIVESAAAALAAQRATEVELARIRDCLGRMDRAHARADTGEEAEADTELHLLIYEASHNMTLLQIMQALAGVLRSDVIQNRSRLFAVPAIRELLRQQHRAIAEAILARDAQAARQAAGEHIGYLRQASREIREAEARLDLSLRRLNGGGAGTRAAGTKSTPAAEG

[2] = target: T2, GlcR (Paracoccus denitrificans, UniProt A1BAC0); experiment: EMSA of Pglc DNA-GlcR complex with effector; details: 0.5-2 mM effector; pH 7.0, 37 °C; effector decreasing DNA binding
T2 construct: gene Pden_4400; full length, pET16b His tag (cutting not mentioned), E. coli BL21 AI; Ni-NTA and size exclusion
T2 sequence (A1BAC0 1-269): T1 sequence (A1BAC0 1-269)

[3] = target: T3, BhcR (Paracoccus denitrificans, UniProt A1B8Z4); experiment: EMSA of Pbhc DNA-BhcR complex with effector; format: binding; details: 0.1-5 mM effector, pH 7.0, 37 °C
T3 construct: full length, pET16b His tag (cutting not mentioned), E. coli BL21 AI; Ni-NTA and size exclusion

[4] = target: T4, GlcR (Paracoccus denitrificans DSM 413) (UniProt A1BAC0); experiment: EMSA; details: EMSA: 20 mM K phosphate pH 7.0, 1 mM DTT, 5 mM MgCl2, 50 mM KCl, 15 ug/mL BSA, 50 ug/mL herring sperm DNA, 5% glycerol, 0.1% Tween20, DNA 0.025 pM, 37 C …
T4 sequence: T1 sequence (A1BAC0 1-269)

[5] = target: T5, MGlcR (MBP-GlcR) (Paracoccus denitrificans DSM 413) (UniProt A1BAC0); experiment: fluorescence polarization
T5 sequence: T1 sequence (A1BAC0 1-269)

[6] = target: BhcR (Paracoccus denitrificans DSM 413) (UniProt A1B8Z4); experiment: EMSA; details: EMSA: 20 mM K phosphate pH 7.0, 1 mM DTT, 5 mM MgCl2, 50 mM KCl, 15 ug/mL BSA, 50 ug/mL herring sperm DNA, 5% glycerol, 0.1% Tween20, DNA 0.025 pM, 37 C …
[7] = effector increasing DNA binding
[8] = EMSA: 20 mM K phosphate pH 7.0, 1 mM DTT, 5 mM MgCl2, 50 mM KCl, 15 ug/mL BSA, 50 ug/mL herring sperm DNA, 5% glycerol, 0.1% Tween20, DNA 0.025 pM, 37 C …

Chain of BhcR (Paracoccus denitrificans DSM 413) (A1B8Z4 whole entry): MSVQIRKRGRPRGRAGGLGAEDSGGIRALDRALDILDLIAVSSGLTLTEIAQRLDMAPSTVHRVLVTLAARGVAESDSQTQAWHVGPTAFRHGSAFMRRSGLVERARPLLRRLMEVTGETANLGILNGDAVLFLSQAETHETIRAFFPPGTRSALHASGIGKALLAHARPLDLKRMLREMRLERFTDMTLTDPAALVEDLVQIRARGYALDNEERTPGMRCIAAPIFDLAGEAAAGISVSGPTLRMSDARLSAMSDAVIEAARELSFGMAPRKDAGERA
T3 sequence (A1B8Z4 whole entry): as above

In the case of `O=C(O)CO` [glycolate], the “fluorescence polarization, effector titration of 6FAM-Pglc-MGlcR complex” value [1] is reported as “Titration of the Pglc-MGlcR complex with increasing concentrations of glycolate demonstrated a notable decrease in binding” and the “EMSA of Pglc DNA-GlcR complex with effector” value [2] is reported as “DNA binding was decreased in the presence of glycolate”.
In the case of `O=CC(=O)O` [glyoxylate], the “EMSA of Pbhc DNA-BhcR complex with effector” value (“EMSA of Pbhc DNA-BhcR complex” below) ([3]; effector decreasing DNA binding) is reported as “the interaction of BhcR with Pbhc was negatively affected by increasing concentrations of glyoxylate”.
`O=C(O)C(=O)O` [oxalate] was tested, and the “EMSA of Pbhc DNA-BhcR complex” value [3, 7] was “the DNA-binding interaction was positively affected by the presence of pyruvate or oxalate”.
With `CC(=O)C(=O)O` [pyruvate] the “EMSA of Pbhc DNA-BhcR complex” value [3, 7] was “the DNA-binding interaction was positively affected by the presence of pyruvate or oxalate”.
“CAAGCTCTCCTCCCTTGGTCGAACGGCAGGCCCGTGTCCTGCCCTGCATTCTTGGTATAATTTTCAGACCACATTAGTCAATCGGTATTTTTCTGGACCGACACGCCCGTCCTGTGCTTACATGGCAGGGATCCGACAACCGCATGAGCGCCCATG (double strand) [Pglc 156 bp]” was tested, and the binding [4] was “binds”.
In the case of “GCTCTCCTCCCTTGGTCGAACGGCAGGCCCGTGTCCTGCCCTGCATTCTTGGTATAATTTTCAGACCACATTAGTCAATCGGTATTTTTCTGGACCGACACGCCCGTCCTGTGCTTACATGGCAGGGATCCGACAACCGCATGAGCGCCC (double strand) [[6FAM]-Pglc]”, the Kd [5, 8] is reported as 225 nM and the binding [5, 8] is reported as “binds”.
“GGAATGAAGATCGGGTTCTGGCTGGTCATGGCAATTCCTCCTGCGCTTGTGGACCAAGCTACGTTTTGCTGTCCATTGATGCAATTTTTCTGAAAAATATTTCGCAATCGCGGAAAAATGACCTAAAGTGTCGTGGAATCAGATCGTTGCTCTTTTCCAAAGCCAAAGAGTGATTTTCAACAAACTCAGAAAGTTGTCGAAAGGAAAAATTGAATGTCGGTTCAAATCCGCAAAAGGG (double strand) [Pbhc 238 bp]” was tested, and the binding [6] was “binds”.
In the case of [6FAM]-Pglc, the Kd ([5]; 10 nM DNA) is reported as 225 nM.
